The values below come from patent US20060265137A1, “Methods to increase the capacity of high content cell-based screening assays” (Cellomics, Inc., priority 2001, published 2006).

In assay [1] the test system is NFkB and ERK. Kind of assay: Primary high content screen, green channel: cytoplasm to nucleus translocation of NFkB and ERK (pooled reporter set). The assay is classed as cell-based. The settings on record: Swiss 3T3 cells, 30 minutes treatment, ALEXA FLUOR 488 secondary antibodies, versus negative controls, FIG. 5. An excerpt: (§1) 1. Cytoplasm to nuclear translocation: (A preferred embodiment of the method is described in detail in U.S. Pat. No. 5,989,835) A nuclear image is acquired and preferably thresholded to create a nuclear mask. A cytoplasmic image is created using either the nuclear image or the fluorescent signals from the fluorescent reporter molecules in the reporter set. Preferably, a cytoplasmic mask is created. Translocation of the fluorescent reporter molecules in an appropriate reporter set(s) between the nucleus and cytoplasm can then be determined by detecting fluorescent signals in the nuclear mask and cytoplasmic mask in the presence and absence of the one or more test compounds.
(§2) In this example, two reporter sets were used, each containing two fluorescent reporter molecules. The first reporter set consisted of ALEXA FLUOR® 488 conjugated secondary antibodies (Molecular Probes, Inc.), which both emit fluorescence detectable in the green channel. These secondary antibodies were used to bind to primary antibodies against extracellular (signal) regulated kinase (ERK) (Cell Signaling Technologies, Inc.) and Nf-kB (Zymed, Inc.). The second reporter set consisted of ALEXA FLUOR® 568 conjugated secondary antibodies (Molecular Probes, Inc.) which both emit fluorescence detectable in the red channel. These secondary antibodies were used to bind to primary antibodies against c-jun and p38.
(§3) In this experiment, the transcription factors under investigation translocate from the cytoplasm to the nucleus upon activation. Therefore, the fluorescent reporter molecules, which indirectly bind to the transcription factors, can be used to monitor the distribution of the transcription factors within the cell. However, each reporter reports on a different cellular event (i.e.: ERK translocation, Nf-kB translocation, c-jun translocation, and p38 translocation).
(§4) Swiss 3T3 cells in EMEM culture medium were plated in 96 well plates, at a plating density of 3,500 cells per well, and allowed to incubate overnight. […]

The subject of assay [2] is p38 and c-jun. Kind of assay: Primary high content screen, red channel: cytoplasm to nucleus translocation of p38 and c-jun (pooled reporter set). The assay is classed as cell-based. The settings on record: Swiss 3T3 cells, 30 minutes treatment, ALEXA FLUOR 568 secondary antibodies, FIG. 6.
From the text: as §1, §2, §3, §4

For `COc1ccc(C[C@H]2NC[C@H](O)[C@H]2OC(C)=O)cc1` [anisomysin], the “translocation in the green channel (NFkB and ERK; difference between cytoplasm and nuclear localization)” value in assay [1] is recorded as “no effect on translocation in the green channel over negative controls”. The “translocation in the red channel (p38 and c-jun)” value (from here on “translocation in the red channel”) in assay [2] is “increase in translocation for p38 and c-jun”.
On to TNF, for which the “translocation in the green channel (NFkB and ERK; difference between cytoplasm and nuclear localization)” value in assay [1] was “both NFkB and ERK specific translocations can be observed”. Further, in assay [2], the “translocation in the red channel” value is listed as “not”.
Turning to `CCCCCCCCCCCCCC(=O)O[C@@H]1[C@@H](C)[C@@]2(O)[C@@H](C=C(CO)C[C@]3(O)C(=O)C(C)=C[C@@H]23)[C@@H]2C(C)(C)[C@]12OC(C)=O` [PMA], in assay [1], the “translocation in the green channel (NFkB and ERK; difference between cytoplasm and nuclear localization)” value was “both NFkB and ERK specific translocations can be observed”. For the same compound, the “translocation in the red channel” value in assay [2] is “increase in translocation for p38 and c-jun”.
